From US20100092385A1, “Novel Heteroaryl Substituted Imidazo [1,2-A] Pyridine Derivatives” (ASTRAZENECA AB, priority 2007, published 2010)

Molecular target: T1, synthetic Aβ 1-40 (Homo sapiens, UniProt P05067)
T1 construct: using synthetic Aβ 1-40 in 2.7 nM of [^3H]PIB
Assay: Competition binding assay
Settings: [3H]PIB as radioligand (2.7 nM), synthetic Aβ 1-40, phosphate buffer pH 7.5, 30 min room temperature; read-out: IC50 in the competion binding assay
Protocol: Competition binding was performed in 384-well FB filter plates using synthetic Aβ 1-40 in 2.7 nM of [^3H]PIB (or another ^3H-labeled radioligand when so mentioned) in phosphate buffer at pH 7.5, by adding various concentrations of non-radioactive compounds originally dissolved in DMSO. The binding mixture was incubated for 30 min at room temperature, followed by vacuum filtration, and subsequently by washing twice with 1% Triton-X100. Scintillation fluid was thereafter added to the collected Aβ 1-40 on the filter plate, and the activity of the bound remaining radioligand ([^3H]PIB or another ^3H-labeled radioligand) was measured using 1450 Microbeta from PerkinElmer. Specific binding was determined according to the competion binding assay described herein. The determined IC50's in the competion binding assays (using [^3H]PIB as radioligand) of […] of the present invention are shown in Table 1.

T1 sequence (P05067 672-711 limits assumed): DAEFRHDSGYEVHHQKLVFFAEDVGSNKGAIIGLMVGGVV

| SMILES | IC50 [nM] |
| --- | --- |
| CNc1ccc(-c2cn3cc(OC)ccc3n2)cn1 [Example 1, 5-(6-Methoxyimidazo[1,2-a]pyridin-2-yl)-N-methylpyridin-2-amine] | 2470 |
| COc1ccc2nc(-c3ccc(OC)nc3)cn2c1 [Example 5, 6-Methoxy-2-(6-methoxypyridin-3-yl)imidazo[1,2-a]pyridine] | 2840 |
| COc1ccc2nc(-c3cnc(OC)c(F)c3)cn2c1 [Example 6, 2-(5-Fluoro-6-methoxypyridin-3-yl)-6-methoxyimidazo[1,2-a]pyridine] | 838 |
| COc1ccc2nc(-c3ccc(N4CCNCC4)nc3)cn2c1 [Example 8, 6-Methoxy-2-(6-piperazin-1-ylpyridin-3-yl)imidazo[1,2-a]pyridine] | 8380 |
| COc1ccc2nc(-c3ccc(N4CCN(C(=O)OC(C)(C)C)CC4)nc3)cn2c1 [Example 9, tert-Butyl 4-[5-(6-methoxyimidazo[1,2-c]pyridin-2-yl)pyridin-2-yl]piperazine-1-carboxylate] | 1360 |
| COc1ccc2nc(-c3cnc(N4CCOCC4)nc3)cn2c1 [Example 10, 6-Methoxy-2-(2-morpholin-4-ylpyrimidin-5-yl)imidazo[1,2-a]pyridine] | 1590 |
| COc1ccc2nc(-c3ccc(C(N)=O)nc3)cn2c1 [Example 16, 5-(6-Methoxyimidazo[1,2-a]pyridin-2-yl)pyridine-2-carboxamide] | 2310 |
| NC(=O)c1ccc(-c2cn3cc(O)ccc3n2)cn1 [Example 17, 5-(6-Hydroxyimidazo[1,2-a]pyridin-2-yl)pyridine-2-carboxamide] | 2790 |
| O=C(OCCF)c1ccc2nc(-c3ccc(F)nc3)cn2c1 [Example 18, 2-Fluoroethyl 2-(6-fluoropyridin-3-yl)imidazo[2,1-f]pyridine-6-carboxylate] | 17900 |
| CN(C)c1ccc(-c2cn3cc(C(=O)OCCF)ccc3n2)cn1 [Example 20, 2-Fluoroethyl 2-(6-dimethylaminopyridin-3-yl)imidazo[2,1-f]pyridine-6-carboxylate] | 16600 |
| CNc1ccc(-c2cn3cc(C(=O)OC)ccc3n2)cn1 [Example 21, Methyl 2-(6-methylaminopyridin-3-yl)imidazo[2,1-f]pyridine-6-carboxylate] | 960 |

These reach a lower IC50. Values come first.

| IC50 [nM] | SMILES |
| --- | --- |
| 375 | CNc1ccc(-c2cn3cc(O)ccc3n2)cn1 [Example 2, 2-[6-(Methylamino)pyridin-3-yl]imidazo[1,2-a]pyridin-6-ol] |
| 386 | COc1ccc2nc(-c3ccc(N(C)C)nc3)cn2c1 [Example 3, 5-(6-Methoxyimidazo[1,2-a]pyridin-2-yl)-N,N-dimethylpyridin-2-amine] |
| 126 | CN(C)c1ccc(-c2cn3cc(O)ccc3n2)cn1 [Example 4, 2-[6-(Dimethylamino)pyridin-3-yl]imidazo[1,2-a]pyridin-6-ol] |
| 709 | COc1ccc2nc(-c3cnc(OC)c(Cl)c3)cn2c1 [Example 7, 2-(5-Chloro-6-methoxypyridin-3-yl)-6-methoxyimidazo[1,2-a]pyridine] |
| 184 | COc1ccc2nc(-c3ccc4[nH]ccc4c3)cn2c1 [Example 11, 2-(1H-Indol-5-yl)-6-methoxyimidazo[1,2-a]pyridine] |
| 739 | COC(=O)c1ccc2nc(-c3ccc(N(C)C)nc3)cn2c1 [Example 19, Methyl 2-(6-dimethylaminopyridin-3-yl)imidazo[2,1-f]pyridine-6-carboxylate] |
| 469 | CNc1ccc(-c2cn3cc(C(=O)OCCF)ccc3n2)cn1 [Example 22, 2-Fluoroethyl 2-(6-methylaminopyridin-3-yl)imidazo[2,1-t]pyridine-6-carboxylate] |
